These are literature values, as cited in patent publication US20090041840A1, “Positive wakeup pharmaceutical sleep system with compatible pre-bedtime administration” (priority 2003, published 2009).

Structures are written as SMILES.

For series [1] the following is noted: Wesensten.
Test in series [2]: not given
The source holds these as a separate data set.

For the compound `CCN(C(C)=O)c1cccc(-c2ccnc3c(C#N)cnn23)c1` [zaleplon], the Solubility in water entry is “practically insoluble”. Regarding `CCOC(=O)c1ncn2c1CN(C)C(=O)c1cc(F)ccc1-2` [Flumazenil, ethyl 8-fluoro-5,6-dihydro-5-methyl-6-oxo-4H-imidazo(1,5a)(1,4)benzodiazepine-3-carboxylate], the “Effect in countering sleep deprivation” value in series [1] is reported as “ineffective”. On to `Cn1c(=O)c2c(ncn2C)n(C)c1=O` [caffeine, 1,3,7-trimethylxanthine], for which, in series [2] (healthy individuals, Brachtel and Richter, Busto et al.), the “Mean half-life in plasma” value is listed as “about 5 hours”.

Consider `NC(=O)C[S+]([O-])C(c1ccccc1)c1ccccc1` (centres unmarked) [modafinil], for which the Half-life entry in series [2] (Wong, et al) was “approximately 15 hours”. For `COC(=O)C(c1ccccc1)C1CCCCN1` (racemic) [methylphenidate], the “Half-life, average” value in series [2] (literature sources) was 2.5 h.
